Data taken from US8632824B2, “Process of obtaining thylakoids from photosynthetic organisms; plant fractions obtained from the process; pure thylakoids; and methods of use of thylakoids as ROS scavengers, photo-protectors, biosensors, biofilters and bioreactors” (Purgenesis Technologies, Inc., priority 2000, dated 2014).

Legend:
IMR-32 cells [1] = test: Estimation of apoptosis in IMR-32 cells by LDH assay; conditions: lysed cells = 100%
Method: For this experiment IMR-32 cells were grown in MEM medium without I-Glutamine, Phenolphtaleine and sodium pyruvate 3000 IMR-32 cell/well seeded in 96 well plates. […] After 1 hour the cells were washed with PBS two times and PBS was replaced with the growth medium. […] Two rows were left untreated as Control. The LDH activity was measured by Lactate Dehydrogenase Assay Kit provided by Sigma Diagnostics. The calorimetric assay measures the residual pyruvate (substrate of the enzymatic reaction). The basal activity present in the medium alone (in the absence of Cells) was considered 0% and was systematically subtracted from each experimental value. Control untreated cells in two rows were lysed with Triton X-100 (0.02%) and were treated as samples with 100% LDH release.
The assay used in the present study measures the residual level of enzyme substrate (pyruvate) using a calorimetric reaction. The more the substrate in the medium, the less enzyme released. Medium cells was taken as 0% enzyme activity released, and lysed cells in the medium as 100% released.

IMR-32 cells [2] = test: Protection of IMR-32 cells against TBHP oxidative stress (Hoechst DNA survival assay); type: cell-based, Human; conditions: for apoptosis produced by TBHP: 1000 cells per well, 1 hour
Excerpt: Human neuroblastoma cell line (IMR-32), which is known to respond to oxidative stress by apoptosis (Kim et al, 1999), was used as an in vitro cell model. IMR32 cells are particularly sensitive to ROS and other toxicants because their p53 gene product is sequestered in the cytoplasm.
Tert-butyl hydroperoxide (TBHP) was used as an oxidative stress-inducing agent. […] This will allow comparisons if studies relative to more generalized oxidative stress conditions (like the ones found in many neurodegenerative diseases) have to be performed on different cells phenotypes.
Experiments were done using 1000 IMR-32 cells per well, for I hour of incubation. TBHP 50, 75 and 100 μM produced 78%, 87% and 87% apoptosis. TBHP 50 μM was selected to induce apoptosis in the other experiments.
Different dilutions were used on IMR-32 cells along with TBHP. A mother solution 1:10 was constituted, starting from the lyophilized thylakoid fraction, in propylene glycol. Unless otherwise specified, the mentioned dilutions are dilutions of this mother solution. […] The latter dilution was adopted for further experimentation.
IMR-32 Cells were grown in MEM supplemented with 10% FBS at 37° C. in a humidified atmosphere of 95% air and 5% CO2. The cells were seeded at a density of 1×10^4 cells/T25 Falcon tissue culture flasks and subcultured twice weekly. 48 h old cultures were used in all the experiments.
1000 or 3000 cells/well/100 uL were seeded in 96 well (Linbro flat bottom) plates in all the wells except well No. 12 of all the rows. After 24 h the cells were washed 2 times with 250 ul of PBS (pH 7.2) and 32 wells each were treated respectively with 100 and 200 uM solutions of TBHP (70% aqueous solution from Sigma Chemical Company) for 1 h. After 1 h the cells were gently washed 2 times with PBS before adding fresh growth medium. After 24 h the cell survival was assayed by a sensitive fluorimetric assay based on DNA binding fluorescent dye Hoechst by the following procedure. The test measures the total DNA of the population, a measurement which closely correlates with cell number. The medium was aspirated by gentle suction. Cells were rinsed with 250 ul PBS. PBS was aspirated with gentle suction. The rinse step was repeated. 100 uL lysis buffer (0.02% SDS in 1×SSC) was added in every well except the ones for DNA standard and Blank in row 12. The plate was incubated at 37° C. for 1 h with occasional swirling. 100 uL of 40 ug/mL of DNA was added to the DNA wells and 100 uL of 1×SSC buffer was added to the wells that were treated as Blank. 100 uL of 40 ug/ml of Hoechst 33258 in 1×SSC buffer was added to every well, and the plate was covered with Aluminum foil to protect it from light. The plate was agitated gently for 5 minutes and fluorescence was read at excitation wavelength 355 nm and emission wavelength 460 nm.
CT untreated=100%: survival after TBHP: 42%, dead cells: 100−42=58%; population size after PC: 88% difference from CT: 100−88=12% Expected population size after TBHP+PC: 100−58−12=30%. Recovered survival: 60% Survival gain in %: 60−30=30 Protection exerted: 30:60×100=50%
FRTS/1 was used as pre-treatment, co-treatment and post-treatment with the oxidative insult.
The <<Cell damages TBHP/CT>> represents the damages caused by the oxidant calculated as a percentage from the survival of untreated controls. […] The <<Expected survival>> is 100-total expected decrease. […] The <<protection exerted by PC>> is calculated as reported above.

[3] = Oxidation of PLPC micelles by peroxyl radicals from AAPH (absorbance at 234 nm); type: biochemical; conditions: FIG. 10
Excerpt: The peroxidation of unsaturated lipid moieties (reactions 1-3) causes changes in their structure which eventually changes the physical properties of biological membranes. During the lipid peroxidation a conjugated diene group is formed (see LOOH in reaction 3) which has an UV/Vis absorption maximum at λmax=234 nm (ε=29,500 M^−1cm^−1) and this allows a quantification of the oxidation product formed. To obtain quantitative data the lipid peroxidation has to be initiated in a controlled manner (reaction 1). Often azo initiators, which produce a well-defined flux of ROO. in aqueous, aerated solution, are employed to study lipid oxidation in in vitro experiments. […]
Depending on possible reaction pathways of the antioxidant used the concentration time profiles of the detected LOOH display certain characteristics. By using an azo initiator as peroxyl radical source the amount of ROO. generated can be calculated and it is possible to determine the amount of lipids oxidized from the 234 nm absorption of the conjugated diene moiety. Also the amount of ROO. trapped during the lag phase can be determined.
From the duration of a possible lag phase during lipid peroxidation experiments (FIG. 9) the amount of “trapped” radicals can be calculated. […]
The reactions were monitored on a spectrophotometer at 37° C. for 10 h. […]

Row | Compound | LDH release/TBHP (IMR-32 cells [1]; TBHP 25 uM alone) [%] | LDH release/TBHP (IMR-32 cells [1]; TBHP 50 uM alone) [%] | apoptosis produced by TBHP (IMR-32 cells [2]; TBHP 50 μM) [%] | apoptosis produced by TBHP (IMR-32 cells [2]; TBHP 75 μM) [%] | apoptosis produced by TBHP (IMR-32 cells [2]; TBHP 100 μM) [%] | Cell damages TBHP/CT (IMR-32 cells [2]; co-treatment experiment, TBHP 25 uM alone) [%] | Cell damages TBHP/CT (IMR-32 cells [2]; co-treatment experiment, TBHP 50 uM alone) [%] | Cell damages TBHP/CT (IMR-32 cells [2]; post-treatment experiment, TBHP 25 uM alone) [%] | Cell damages TBHP/CT (IMR-32 cells [2]; post-treatment experiment, TBHP 50 uM alone) [%] | Cell damages TBHP/CT (IMR-32 cells [2]; pre-treatment experiment, TBHP 25 uM alone) [%] | Cell damages TBHP/CT (IMR-32 cells [2]; pre-treatment experiment, TBHP 50 uM alone) [%] | survival after TBHP (IMR-32 cells [2]; worked calculation example, CT untreated=100%) [%] | oxidation kinetics of lipids compared to Trolox [3]
1 | CC(C)(C)OO [TBHP, Tert-butyl hydroperoxide] | 64 | 92 | 78 | 87 | 87 | 39 | 67 | 38 | 66 | 58 | 70 | 42 | –
2 | CC1=C(/C=C/C(C)=C/C=C/C(C)=C/C=C/C=C(C)/C=C/C=C(C)/C=C/C2=C(C)CCCC2(C)C)C(C)(C)CCC1 [β-carotene] | – | – | – | – | – | – | – | – | – | – | – | – | an antioxidant but with no lag phase
